# In ChEMBL document CHEMBL1221328, “Relationships between structures of hydroxyflavones and their antioxidative effects” (Bioorg Med Chem Lett, 2010):
# Assay: Antioxidant activity assessed as […] radical scavenging activity
# Format: functional
# Set-up: concentration or dose not given beside the values
row,Compound,Activity [%]
1,O=c1c(O)c(-c2ccccc2O)oc2c(O)c(O)ccc12,83.1
2,O=c1c(O)c(-c2ccccc2O)oc2ccccc12,69.3
3,O=c1c(O)c(-c2ccc(O)c(O)c2)oc2ccccc12,85.7
4,O=c1cc(-c2ccc(O)cc2)oc2cc(O)c(O)c(O)c12,69.9
5,O=c1cc(-c2ccccc2O)oc2c(O)c(O)ccc12,79.9
6,O=c1c(O)c(-c2ccc(O)cc2O)oc2ccc(O)cc12,86.3
7,O=c1c(O)c(-c2cccc(O)c2O)oc2ccc(O)cc12,86.6
8,O=c1c(O)c(-c2ccc(O)c(O)c2)oc2cc(O)ccc12,85.2
9,O=c1cc(-c2ccc(O)c(O)c2)oc2cc(O)ccc12,84.9
10,O=c1c(O)c(-c2cc(O)c(O)c(O)c2)oc2cc(O)ccc12,79.9
11,O=c1cc(-c2cccc(O)c2)oc2c(O)c(O)ccc12,87.1
12,O=c1cc(-c2ccc(O)c(O)c2)oc2ccc(O)cc12,83.9
13,O=c1cc(-c2cccc(O)c2O)oc2ccc(O)cc12,87.1
14,O=c1c(O)c(-c2ccccc2)oc2cc(O)cc(O)c12,52.5
15,O=c1c(O)c(-c2cc(O)c(O)c(O)c2)oc2cc(O)cc(O)c12,79.5
16,O=c1c(O)c(-c2ccc(O)c(O)c2)oc2c(O)c(O)cc(O)c12,85.4
17,O=c1c(O)c(-c2ccccc2)oc2cccc(O)c12,58.3
18,O=c1cc(-c2cc(O)cc(O)c2)oc2ccccc12,61.8
19,O=c1c(O)c(-c2ccccc2O)oc2ccc(O)cc12,86.8
20,O=c1cc(-c2ccc(O)c(O)c2)oc2cc(O)c(O)cc12,86.4
21,O=c1c(O)c(-c2ccc(O)cc2O)oc2cc(O)cc(O)c12,81.5
22,O=c1cc(-c2cc(O)c(O)c(O)c2)oc2cc(O)ccc12,88.8
23,O=c1cc(-c2cc(O)c(O)c(O)c2)oc2cc(O)cc(O)c12,88.1
24,O=c1c(O)c(-c2ccc(O)c(O)c2)oc2ccc(O)cc12,86.7
25,O=c1cc(-c2ccc(O)c(O)c2)oc2c(O)c(O)ccc12,87.4
26,O=c1cc(-c2ccccc2)oc2c(O)c(O)cc(O)c12,58.8
27,O=c1c(O)c(-c2ccc(O)cc2)oc2cc(O)cc(O)c12,77.2
28,O=c1c(O)c(-c2ccc(O)c(O)c2)oc2cc(O)cc(O)c12,87.8
29,O=c1c(O)c(-c2cc(O)c(O)cc2O)oc2ccc(O)cc12,85.6
30,O=c1c(O)c(-c2ccccc2O)oc2cc(O)cc(O)c12,86.5
